What was measured:
[1] = system: lung tumors in Ki-ras^G12C mice; test: Ki-ras^G12C bi-transgenic mouse model of lung tumorigenesis, DOX-induced; assay type: in vivo
Method: Tumors were fixed with 4% paraformaldehyde for 24 h and incubated in 70% ethanol for 48 h prior to embedding in paraffin. The embedded tumors were cut into five micron thick sections and stained with hematoxylin and eosin to determine morphology. Cell proliferation in the tumors was detected by immunostaining with an antibody to Ki67 (1:25; Abcam, Cambridge, Mass.) using the labeled streptavidin biotin method, as described previously (Floyd et al., Carcinogenesis, 2005, 26:2196-2206). Stained sections were visualized and photographed with a video image analysis system (Scion, Inc., Frederick, Md.) and public domain software (NIH Image v1.60). A computer-assisted counting technique with a grid filter to select cells was used to quantify the immunohistochemical staining of Ki67 (Stute et al., Fertil. Steril., 2004, 82:1160-1170). The positive cells were expressed as a percentage of the total cell number examined (100 cells sampled from each tissue site within each lung tumor section).
A novel model for the induction of lung tumors in mice, a bi-transgenic mouse that expresses the mutant human Ki-ras^G12C allele in a tet-inducible and lung-specific manner was generously supplied by Dr. Mark Miller of the Department of Cancer Biology, Wake Forest University School of Medicine, for use in these experiments.
For these experiments, sixteen (16) bi-transgenic mice were produced by crossing mono-transgenic Ki-ras^G12C mice with Clara cell secretory protein-reverse tet trans-activator (CCSP-rtTA) transgenic mice. The presence of both transgenes was verified by genotyping.

[2] = adjuvant therapy for cytopenia during chemotherapy; Rodgers et al., 2005; cited from earlier work
[3] = rats, Strawn 1999, cited from earlier work
[4] = system: A549 human lung cancer cells; test: Hoechst 33342 staining for morphological features of apoptosis; assay type: cell-based; conditions: 100 nM, 4 h
Description: In one experiment, A549 human lung cancer cells were stained with Hoechst 33342 to visualize the morphological changes associated with apoptosis.

ERK2 = conditions: SK-LU-1, 10 nM pretreatment; Gallagher et al., 2004; cited from earlier work
A549 lung cancer cells = test: Serum-stimulated ^3H-thymidine incorporation, A549; assay type: cell-based, human; conditions: A549, 1% FBS, daily addition of 100 nM
Method: Unless otherwise stated, cells were grown in DMEM with 10% fetal bovine serum (FBS), 100 μg/mL penicillin and 100 units/mL streptomycin in a humidified 37° C. incubator gassed with 5% CO2 and 95% room air. Cells were grown to subconfluence in either 24-well cluster plates or 100 mm dishes and made quiescent by treatment for 48 h with serum-depleted growth media, prior to the experiments outlined below to measure cell growth (^3H-thymidine incorporation), cell signaling or apoptosis.
Subsequently, the cell monolayer was washed with cold phosphate-buffered saline (PBS; 50 mM NaPO4, 120 mM NaCl, pH=7.2). The adherent cells were precipitated with cold 10% TCA (4° C. for 30 min) and dissolved in 0.2% SDS in 0.1 N NaOH. Incorporated ^3H-thymidine was determined by liquid scintillation spectrometry, as previously described (Freeman, E. J. et al., Hypertension, 1996, 28:104-108). Growth inhibition was defined as a reduction in the amount of ^3H-thymidine incorporation as compared to the mitogen-stimulated controls.

[5] = system: MAP kinase kinase 5 (MEK5); test: MEK5 expression in SK-LU-1 cells by RT-PCR and Western analysis; assay type: cell-based, human; conditions: SK-LU-1, 1% serum, 10 nM, 4 and 8 h
Method: RNA, isolated from cells or tissue, using the TRIzol reagent (GIBCO Invitrogen, Carlsbad, Calif.), was subjected to reverse transcriptase/real-time polymerase chain reaction as previously described (Tallant et al., Am. J. Physiol. Heart Circ. Physiol., 2005, 289:1560-1566). All reactions were performed in triplicate and 18S ribosomal RNA, amplified using the TaqMan Ribosomal RNA Control Kit (Applied Biosystems), served as an internal control. The results were quantified as Ct values, where Ct is defined as the threshold cycle of PCR at which amplified product is first detected, and defined as relative gene expression (the ratio of target/control). For RT-PCR, total RNA was isolated using the Atlas Pure Total RNA Labeling System (Clontech Laboratories, Inc). The RNA concentration was quantified by UV spectroscopy and any degradation assessed by ethidium bromide staining intensity of 28S and 18S ribosomal RNA following agarose gel electrophoresis. […] Following PCR, the amplification products were separated by polyacrylamide gel electrophoresis, visualized by autoradiography, and analyzed using the MCID imaging system.
Proteins were separated electrophoretically on SDS polyacrylamide gels, transferred to polyvinyl membranes, and incubated with primary antibodies to proteins of interest. […] The density of each immunoreactive product was quantified using the MCID imaging system. […]

caspase-9 = test: Caspase-9 activity in A549 cell lysates; assay type: cell-based, human; conditions: A549 cells, 100 nM
cellular levels of cAMP = conditions: 1 μM, in the presence of 1 mM IBMX; n=3; U.S. Pat. No. 7,375,075; cited from earlier work
AT2 angiotensin receptor = target: T1, AT2 angiotensin receptor (Homo sapiens, UniProt P50052); conditions: cited from earlier work
T1 sequence (P50052 1-363): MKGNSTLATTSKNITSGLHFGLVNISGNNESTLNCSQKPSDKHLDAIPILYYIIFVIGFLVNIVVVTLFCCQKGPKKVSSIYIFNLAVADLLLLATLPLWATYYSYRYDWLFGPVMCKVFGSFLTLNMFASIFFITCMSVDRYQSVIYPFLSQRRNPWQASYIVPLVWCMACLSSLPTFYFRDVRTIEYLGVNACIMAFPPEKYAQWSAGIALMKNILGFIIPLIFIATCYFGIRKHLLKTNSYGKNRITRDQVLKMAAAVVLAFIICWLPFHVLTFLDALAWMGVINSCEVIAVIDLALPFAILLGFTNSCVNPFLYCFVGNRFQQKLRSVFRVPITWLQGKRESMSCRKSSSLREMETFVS

CC[C@H](C)[C@H](NC(=O)[C@H](Cc1ccc(O)cc1)NC(=O)[C@@H](NC(=O)[C@H](CCCNC(=N)N)NC(=O)[C@@H](N)CC(=O)O)C(C)C)C(=O)N[C@@H](Cc1c[nH]cn1)C(=O)N1CCC[C@H]1C(=O)O [Ang-(1-7), Asp-Arg-Val-Tyr-Ile-His-Pro]
Ki67 immunoreactivity in hyperplastic lesion ([1]; 24 μg/kg/h infusion, 84 days, saline: abundant, robust staining): little immunoreactivity | adverse reactions or gross pathological abnormalities ([1]; 24 μg/kg/h intravenous infusion, 84 days): No adverse reactions or gross pathological abnormalities | lung tumor multiplicity ([1]; 24 μg/kg/h intravenous infusion, 84 days, n=8, saline 12.75±1.04): 6.4±0.87 tumors/mice | CD34 positive cells in pulmonary lesions ([1]; Ang-(1-7) infusion, n=7, saline 63.5±6.1 (n=8), percentage of total cell number per FIG. 16 legend): 37.7±5.2 | proportion of COX-2 positive cells in hyperplasias and adenomas ([1]; Ang-(1-7) infusion, n=7, saline 68.8±10.2% (n=8)): 29.3±8.2% | reduction in the development of new tumors ([1]; Ki-ras/CCSP-rtTA bi-transgenic mice, FIG. 2): about 50% | reduction in the proportion of COX-2 positive cells ([1]; versus saline): ~50% | reduction in CD34 positive cells ([1]; versus saline-treated animals): ~40% | adverse side effects in patients [2]: no adverse side effects | Ang-(1-7) in the circulation ([3]; 24 μg/kg/h intravenous, 12 days, n=6-8, from 0.052±0.005): 0.185 ± 0.046 nM | tolerability: weight, blood pressure, heart rate ([3]; 24 μg/kg/hr): no change in weight, blood pressure, or heart rate | morphological changes (Hoechst 33342) [4]: typical morphological changes associated with stimulation of apoptosis | reduction of serum-stimulated phosphorylation of ERK2 (ERK2): 68% | ^3H-thymidine incorporation over time of treatment (A549 lung cancer cells): progressively reduced | MEK5 mRNA and protein [5]: reduced | caspase-9 activity (caspase-9): no effect | cellular levels of cAMP (cellular levels of cAMP): 131.9±9.7 % of basal | IC50 at the AT2 angiotensin receptor (AT2 angiotensin receptor; Tallant et al., 1999): micromolar range | competition at the AT2 receptor (AT2 angiotensin receptor; literature): poor competitor
